Test results as given in ChEMBL document CHEMBL5465560, “Selectivity Literature for EUbOPEN Chemogenomic Library” (2024).

Key:
[1] = molecular target: Macrophage colony-stimulating factor 1 receptor (Homo sapiens) (UniProt P07333); assay: Selectivity interaction (KinomeScan (DiscoverX)) EUB0000666a CSF1R; conditions: at 10 µM
[2] = molecular target: T1, 5-hydroxytryptamine receptor 1A (Homo sapiens) (UniProt P08908); assay: Selectivity interaction (Panel of non-epigenetic targets (kinases, GPCRs, ion channels, and transporters, Eurofins) ) EUB0000271b HTR1A; conditions: at 1 µM
T1 sequence (whole entry): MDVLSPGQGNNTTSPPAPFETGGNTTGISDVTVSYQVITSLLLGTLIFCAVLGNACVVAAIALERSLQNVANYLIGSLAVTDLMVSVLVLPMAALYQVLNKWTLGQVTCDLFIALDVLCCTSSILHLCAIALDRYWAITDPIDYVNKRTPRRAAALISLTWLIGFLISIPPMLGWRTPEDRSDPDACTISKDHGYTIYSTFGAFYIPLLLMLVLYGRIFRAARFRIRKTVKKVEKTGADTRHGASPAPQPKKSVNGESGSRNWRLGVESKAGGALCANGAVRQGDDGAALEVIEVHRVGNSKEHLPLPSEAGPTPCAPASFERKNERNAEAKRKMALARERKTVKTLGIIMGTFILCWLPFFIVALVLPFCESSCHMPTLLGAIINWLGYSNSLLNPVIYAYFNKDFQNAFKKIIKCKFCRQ

[3] = molecular target: T2, Serine/threonine-protein kinase PLK4 (Homo sapiens) (UniProt O00444); assay: Selectivity interaction (KinomeScan (DiscoverX)) EUB0001049a PLK4; conditions: at 1 µM
T2 sequence (whole entry): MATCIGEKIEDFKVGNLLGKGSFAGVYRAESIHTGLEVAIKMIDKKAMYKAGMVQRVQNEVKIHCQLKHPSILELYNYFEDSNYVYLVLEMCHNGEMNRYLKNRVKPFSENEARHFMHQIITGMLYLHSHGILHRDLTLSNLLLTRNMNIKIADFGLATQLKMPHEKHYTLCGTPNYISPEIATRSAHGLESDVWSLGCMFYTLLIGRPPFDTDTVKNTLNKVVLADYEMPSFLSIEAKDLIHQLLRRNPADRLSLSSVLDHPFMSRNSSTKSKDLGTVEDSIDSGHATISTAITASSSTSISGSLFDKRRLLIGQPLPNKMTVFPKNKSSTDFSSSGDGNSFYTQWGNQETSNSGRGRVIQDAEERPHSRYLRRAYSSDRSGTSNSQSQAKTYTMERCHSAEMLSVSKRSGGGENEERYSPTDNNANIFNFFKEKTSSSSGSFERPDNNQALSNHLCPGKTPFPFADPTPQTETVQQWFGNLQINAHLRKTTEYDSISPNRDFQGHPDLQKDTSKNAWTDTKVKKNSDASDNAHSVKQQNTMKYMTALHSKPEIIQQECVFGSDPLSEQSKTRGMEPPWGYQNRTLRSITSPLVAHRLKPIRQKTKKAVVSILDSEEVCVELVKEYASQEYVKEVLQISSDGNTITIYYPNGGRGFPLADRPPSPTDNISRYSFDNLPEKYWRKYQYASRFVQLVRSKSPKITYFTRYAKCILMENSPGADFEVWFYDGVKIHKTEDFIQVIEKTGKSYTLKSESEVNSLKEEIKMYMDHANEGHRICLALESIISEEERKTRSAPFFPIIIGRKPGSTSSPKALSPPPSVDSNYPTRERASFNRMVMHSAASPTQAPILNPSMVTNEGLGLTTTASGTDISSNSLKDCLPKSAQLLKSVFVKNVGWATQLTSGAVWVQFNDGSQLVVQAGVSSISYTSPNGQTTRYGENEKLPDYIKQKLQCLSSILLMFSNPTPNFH

[4] = molecular target: Glycogen synthase kinase-3 beta (Homo sapiens, UniProt P49841); assay: Selectivity interaction (KinomeScan (DiscoverX)) EUB0001049a GSK3B; conditions: at 1 µM
Glycogen synthase kinase-3 beta, sequence (P49841 whole entry, looked up): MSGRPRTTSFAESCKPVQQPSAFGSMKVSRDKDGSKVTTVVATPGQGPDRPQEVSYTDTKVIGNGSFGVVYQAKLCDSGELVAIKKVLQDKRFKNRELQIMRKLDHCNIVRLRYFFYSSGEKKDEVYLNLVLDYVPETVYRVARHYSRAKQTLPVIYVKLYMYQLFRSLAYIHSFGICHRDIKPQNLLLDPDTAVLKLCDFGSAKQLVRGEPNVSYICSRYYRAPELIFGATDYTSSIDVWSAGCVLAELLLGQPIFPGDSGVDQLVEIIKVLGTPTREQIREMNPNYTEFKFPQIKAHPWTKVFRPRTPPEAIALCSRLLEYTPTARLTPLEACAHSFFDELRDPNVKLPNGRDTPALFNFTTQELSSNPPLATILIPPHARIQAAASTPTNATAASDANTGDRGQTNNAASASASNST

[5] = molecular target: T3, Ephrin type-B receptor 4 (Homo sapiens) (UniProt P54760); assay: Selectivity interaction (Millipore kinase profiler) EUB0000124b EPHB4; conditions: at 10 µM
T3 sequence (whole entry): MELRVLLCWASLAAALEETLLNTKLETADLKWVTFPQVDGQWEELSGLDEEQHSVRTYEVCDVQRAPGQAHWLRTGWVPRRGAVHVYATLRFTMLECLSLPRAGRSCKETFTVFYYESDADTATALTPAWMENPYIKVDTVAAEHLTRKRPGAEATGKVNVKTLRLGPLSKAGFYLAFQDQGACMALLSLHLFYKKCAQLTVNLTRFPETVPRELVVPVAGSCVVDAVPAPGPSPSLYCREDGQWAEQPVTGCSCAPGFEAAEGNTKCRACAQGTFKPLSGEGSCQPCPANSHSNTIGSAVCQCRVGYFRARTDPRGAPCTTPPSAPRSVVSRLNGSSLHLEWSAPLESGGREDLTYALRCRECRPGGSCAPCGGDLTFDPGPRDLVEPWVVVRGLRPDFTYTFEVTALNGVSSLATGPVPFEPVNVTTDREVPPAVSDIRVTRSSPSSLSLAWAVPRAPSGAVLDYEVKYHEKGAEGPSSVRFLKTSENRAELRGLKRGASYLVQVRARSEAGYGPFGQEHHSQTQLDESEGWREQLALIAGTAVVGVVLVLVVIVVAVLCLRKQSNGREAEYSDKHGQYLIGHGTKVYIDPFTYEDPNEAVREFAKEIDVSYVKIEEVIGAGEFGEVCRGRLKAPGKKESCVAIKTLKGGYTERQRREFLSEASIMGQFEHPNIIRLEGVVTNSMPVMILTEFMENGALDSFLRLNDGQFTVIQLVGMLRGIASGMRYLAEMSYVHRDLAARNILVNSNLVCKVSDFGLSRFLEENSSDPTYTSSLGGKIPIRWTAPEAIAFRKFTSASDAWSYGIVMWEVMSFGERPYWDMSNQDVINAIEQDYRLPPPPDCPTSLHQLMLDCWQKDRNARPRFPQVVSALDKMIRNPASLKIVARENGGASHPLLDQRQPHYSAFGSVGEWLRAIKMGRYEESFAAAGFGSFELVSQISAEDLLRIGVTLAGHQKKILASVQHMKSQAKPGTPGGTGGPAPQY

[6] = molecular target: Bone morphogenetic protein receptor type-1A (Homo sapiens, UniProt P36894); assay: Selectivity interaction (KinomeScan (DiscoverX)) EUB0000607a BMPR1A; conditions: at 10 µM
Bone morphogenetic protein receptor type-1A, sequence (P36894 whole entry): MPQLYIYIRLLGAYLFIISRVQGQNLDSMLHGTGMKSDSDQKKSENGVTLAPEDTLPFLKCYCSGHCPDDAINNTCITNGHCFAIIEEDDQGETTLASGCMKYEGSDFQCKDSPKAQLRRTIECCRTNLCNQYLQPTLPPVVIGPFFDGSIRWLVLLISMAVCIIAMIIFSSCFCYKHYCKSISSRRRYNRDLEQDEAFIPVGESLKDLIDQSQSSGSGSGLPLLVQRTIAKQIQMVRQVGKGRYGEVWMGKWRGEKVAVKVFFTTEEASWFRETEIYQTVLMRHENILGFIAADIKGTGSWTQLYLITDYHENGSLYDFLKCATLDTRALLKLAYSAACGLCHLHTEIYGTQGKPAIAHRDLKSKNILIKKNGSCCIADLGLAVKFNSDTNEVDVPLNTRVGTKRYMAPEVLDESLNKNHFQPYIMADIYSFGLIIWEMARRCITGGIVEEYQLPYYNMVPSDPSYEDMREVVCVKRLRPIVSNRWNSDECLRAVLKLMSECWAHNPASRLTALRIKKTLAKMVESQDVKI

[7] = molecular target: Serine/threonine-protein kinase 35 (Homo sapiens) (UniProt Q8TDR2); assay: Selectivity interaction (KinomeScan (DiscoverX)) EUB0000618a STK35; conditions: at 10 µM
Serine/threonine-protein kinase 35 (Homo sapiens), sequence (Q8TDR2 whole entry): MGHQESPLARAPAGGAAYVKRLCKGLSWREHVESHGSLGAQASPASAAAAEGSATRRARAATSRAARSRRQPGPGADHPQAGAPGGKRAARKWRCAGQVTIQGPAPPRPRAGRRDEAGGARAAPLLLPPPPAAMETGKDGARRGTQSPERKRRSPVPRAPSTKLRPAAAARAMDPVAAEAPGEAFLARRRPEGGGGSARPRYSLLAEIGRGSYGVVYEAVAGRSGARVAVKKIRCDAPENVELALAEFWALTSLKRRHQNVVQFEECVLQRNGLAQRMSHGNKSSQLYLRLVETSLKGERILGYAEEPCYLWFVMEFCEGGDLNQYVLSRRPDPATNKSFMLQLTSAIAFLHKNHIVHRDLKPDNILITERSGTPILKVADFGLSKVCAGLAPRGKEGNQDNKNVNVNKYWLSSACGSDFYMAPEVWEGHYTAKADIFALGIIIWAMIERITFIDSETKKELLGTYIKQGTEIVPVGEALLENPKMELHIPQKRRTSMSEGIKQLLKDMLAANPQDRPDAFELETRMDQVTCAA

[8] = molecular target: Mitogen-activated protein kinase 10 (Homo sapiens, UniProt P53779); assay: Selectivity interaction (Kinase panel (Invitrogen)) EUB0000639a MAPK10; conditions: at 200 nM
Mitogen-activated protein kinase 10, sequence (P53779 whole entry): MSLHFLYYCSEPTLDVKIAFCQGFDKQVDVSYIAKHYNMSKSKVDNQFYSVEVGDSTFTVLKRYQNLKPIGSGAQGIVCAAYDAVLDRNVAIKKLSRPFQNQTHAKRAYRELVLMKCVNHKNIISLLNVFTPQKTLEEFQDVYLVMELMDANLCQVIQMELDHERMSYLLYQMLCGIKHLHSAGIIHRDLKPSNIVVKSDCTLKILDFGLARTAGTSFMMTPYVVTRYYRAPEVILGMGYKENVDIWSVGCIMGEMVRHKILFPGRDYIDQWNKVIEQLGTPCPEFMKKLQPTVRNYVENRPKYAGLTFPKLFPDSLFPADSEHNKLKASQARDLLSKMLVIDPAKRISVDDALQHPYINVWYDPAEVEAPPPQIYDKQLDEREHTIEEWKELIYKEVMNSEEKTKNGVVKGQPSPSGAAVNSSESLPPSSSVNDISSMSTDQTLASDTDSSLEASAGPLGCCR

[9] = molecular target: Serine/threonine-protein kinase VRK2 (Homo sapiens) (UniProt Q86Y07); assay: Selectivity interaction (KinomeScan (DiscoverX)) EUB0000092b VRK2; conditions: at 10 µM
Serine/threonine-protein kinase VRK2 (Homo sapiens), sequence (Q86Y07 whole entry): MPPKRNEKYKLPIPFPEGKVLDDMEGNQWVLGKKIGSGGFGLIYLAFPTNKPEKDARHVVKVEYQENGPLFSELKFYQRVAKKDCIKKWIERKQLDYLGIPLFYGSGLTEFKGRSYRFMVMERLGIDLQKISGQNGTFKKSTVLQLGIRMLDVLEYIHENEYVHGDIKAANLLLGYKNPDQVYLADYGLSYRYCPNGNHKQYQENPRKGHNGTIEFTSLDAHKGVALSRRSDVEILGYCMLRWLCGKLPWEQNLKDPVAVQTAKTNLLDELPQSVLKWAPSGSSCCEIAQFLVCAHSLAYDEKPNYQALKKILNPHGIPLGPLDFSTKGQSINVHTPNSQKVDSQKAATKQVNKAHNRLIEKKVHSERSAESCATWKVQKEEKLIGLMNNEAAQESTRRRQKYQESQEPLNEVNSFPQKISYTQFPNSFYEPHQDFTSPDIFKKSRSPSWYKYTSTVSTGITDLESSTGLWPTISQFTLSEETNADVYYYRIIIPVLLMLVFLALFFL

[10] = molecular target: Serine/threonine-protein kinase 16 (Homo sapiens, UniProt O75716); assay: Selectivity interaction (KinomeScan (DiscoverX)) EUB0000092b STK16; conditions: at 10 µM
Serine/threonine-protein kinase 16, sequence (O75716 whole entry): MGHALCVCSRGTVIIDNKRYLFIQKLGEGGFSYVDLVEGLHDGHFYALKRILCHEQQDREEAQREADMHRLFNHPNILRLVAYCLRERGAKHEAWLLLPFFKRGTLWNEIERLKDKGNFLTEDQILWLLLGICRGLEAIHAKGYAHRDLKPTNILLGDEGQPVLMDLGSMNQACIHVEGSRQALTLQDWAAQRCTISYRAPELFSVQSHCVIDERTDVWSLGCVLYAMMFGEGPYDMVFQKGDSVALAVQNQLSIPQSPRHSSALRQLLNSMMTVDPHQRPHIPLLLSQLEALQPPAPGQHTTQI

Macrophage colony-stimulating factor 1 receptor (Homo sapiens), sequence (P07333 whole entry): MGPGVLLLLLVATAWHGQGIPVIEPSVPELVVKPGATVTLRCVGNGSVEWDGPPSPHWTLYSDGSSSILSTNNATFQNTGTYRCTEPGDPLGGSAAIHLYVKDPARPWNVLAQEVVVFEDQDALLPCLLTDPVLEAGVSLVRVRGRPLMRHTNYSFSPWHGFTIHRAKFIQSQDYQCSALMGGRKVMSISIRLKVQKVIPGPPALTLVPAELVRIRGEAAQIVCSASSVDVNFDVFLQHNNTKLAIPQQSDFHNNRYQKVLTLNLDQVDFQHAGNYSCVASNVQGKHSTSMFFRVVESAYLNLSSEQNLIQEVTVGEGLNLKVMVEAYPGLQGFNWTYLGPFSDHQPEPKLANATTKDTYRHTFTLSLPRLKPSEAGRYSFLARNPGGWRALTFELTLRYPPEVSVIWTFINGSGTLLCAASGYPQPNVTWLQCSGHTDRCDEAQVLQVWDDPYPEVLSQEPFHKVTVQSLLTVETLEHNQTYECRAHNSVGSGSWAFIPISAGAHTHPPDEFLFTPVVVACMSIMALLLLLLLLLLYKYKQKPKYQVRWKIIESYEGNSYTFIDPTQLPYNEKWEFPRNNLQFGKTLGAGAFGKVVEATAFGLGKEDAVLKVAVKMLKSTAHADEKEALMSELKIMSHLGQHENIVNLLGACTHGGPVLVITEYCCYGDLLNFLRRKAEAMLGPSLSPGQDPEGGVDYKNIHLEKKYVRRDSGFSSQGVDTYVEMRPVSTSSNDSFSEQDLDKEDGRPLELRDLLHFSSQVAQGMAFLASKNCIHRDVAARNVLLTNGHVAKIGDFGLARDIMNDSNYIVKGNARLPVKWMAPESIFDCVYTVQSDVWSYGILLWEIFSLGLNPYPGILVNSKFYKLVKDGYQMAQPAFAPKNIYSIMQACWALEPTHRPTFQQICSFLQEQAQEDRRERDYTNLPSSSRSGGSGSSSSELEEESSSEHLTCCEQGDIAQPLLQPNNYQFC

Structure (SMILES): O=C(NOC[C@H](O)CO)c1ccc(F)c(F)c1Nc1ccc(I)cc1F
- % of control [1]: 100%

Structure (SMILES): Cc1cc(C)cc([C@@H]2c3cc(C)ccc3NC(=O)CN2C(=O)c2ccc(Br)s2)c1
- % of inhibition [2]: 5%

Structure (SMILES): COc1cc(Nc2nc(C)cc(-c3cnn4nc(OC)ccc34)n2)cc(C(F)(F)F)c1
- % of control [3]: 49%
- % of control [4]: 100%

Structure (SMILES): CC(=O)Nc1cccc(-n2c(=O)n(C3CC3)c(=O)c3c(Nc4ccc(I)cc4F)n(C)c(=O)c(C)c32)c1
- % of control [5]: 124%

Structure (SMILES): CNC(=O)Nc1ccc(-c2nc(N3CC4CCC(C3)O4)c3cnn(C4CCC5(CC4)OCCO5)c3n2)cc1
- % of control [6]: 100%

Structure (SMILES): O[C@H]1CC[C@H](Nc2ncc3nc(Nc4c(F)cc(F)cc4F)n([C@H]4CCOC4)c3n2)CC1
- % of control [7]: 100%

Structure (SMILES): CC[C@@H]1[C@H](F)C(=O)N[C@@H]1COc1nccc2cc(C(N)=O)c(OC)cc12 [ZIMLOVISERTIB]
- % of inhibition [8]: 6.65%

Structure (SMILES): CCC(=O)N1CCN(c2ccc(-n3c(=O)ccc4cnc5ccc(-c6cnc7ccccc7c6)cc5c43)cc2C(F)(F)F)CC1
- % of control [9]: 100%
- % of control [10]: 18%
